The target of data set [1] is T1, Protein cereblon/Tyrosine-protein kinase ABL1/Breakpoint cluster region protein (Homo sapiens, UniProt P00519+P11274+Q96SW2). The experiment in a line: Protac activity at CRBN/BCR-ABL in human K562 cells assessed as increase in BCR-ABL degradation at 100 nM incubated for 6 hrs followed by compound washout measured after 4 hrs by Western blotting analysis. In kind it is cell-based. For orientation: A western blot detects proteins with antibodies after separation by electrophoresis.
Target sequence in this assay (P00519 whole entry, looked up): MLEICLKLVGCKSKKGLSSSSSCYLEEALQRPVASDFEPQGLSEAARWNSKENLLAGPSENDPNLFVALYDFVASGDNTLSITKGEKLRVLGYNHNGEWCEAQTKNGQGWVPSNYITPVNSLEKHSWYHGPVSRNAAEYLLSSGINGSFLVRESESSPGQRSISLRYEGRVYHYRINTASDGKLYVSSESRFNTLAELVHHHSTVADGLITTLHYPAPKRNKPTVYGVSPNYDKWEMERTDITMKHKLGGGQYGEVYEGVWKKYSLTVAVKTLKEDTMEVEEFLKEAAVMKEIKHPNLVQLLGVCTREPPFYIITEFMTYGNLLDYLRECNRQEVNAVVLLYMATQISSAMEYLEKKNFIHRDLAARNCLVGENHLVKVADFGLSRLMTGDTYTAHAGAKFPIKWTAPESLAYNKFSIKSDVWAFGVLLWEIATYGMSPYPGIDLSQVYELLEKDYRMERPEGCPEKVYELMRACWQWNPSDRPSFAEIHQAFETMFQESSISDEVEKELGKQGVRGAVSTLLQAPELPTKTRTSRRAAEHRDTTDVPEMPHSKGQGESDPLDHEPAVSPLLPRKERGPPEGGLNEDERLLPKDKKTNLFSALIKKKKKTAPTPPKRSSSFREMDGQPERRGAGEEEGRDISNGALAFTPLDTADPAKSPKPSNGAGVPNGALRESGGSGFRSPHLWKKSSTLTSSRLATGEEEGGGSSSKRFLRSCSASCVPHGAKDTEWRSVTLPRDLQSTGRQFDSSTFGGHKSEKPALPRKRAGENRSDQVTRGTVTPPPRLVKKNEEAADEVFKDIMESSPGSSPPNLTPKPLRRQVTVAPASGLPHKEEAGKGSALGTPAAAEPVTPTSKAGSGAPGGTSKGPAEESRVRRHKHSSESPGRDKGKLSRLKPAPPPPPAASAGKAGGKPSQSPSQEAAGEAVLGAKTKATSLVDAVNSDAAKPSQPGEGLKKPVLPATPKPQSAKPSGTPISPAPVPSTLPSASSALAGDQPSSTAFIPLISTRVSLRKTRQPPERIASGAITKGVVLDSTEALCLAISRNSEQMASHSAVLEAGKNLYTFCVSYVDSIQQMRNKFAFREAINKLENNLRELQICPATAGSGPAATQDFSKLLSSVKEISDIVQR
Target sequence in this assay (P11274 whole entry, looked up): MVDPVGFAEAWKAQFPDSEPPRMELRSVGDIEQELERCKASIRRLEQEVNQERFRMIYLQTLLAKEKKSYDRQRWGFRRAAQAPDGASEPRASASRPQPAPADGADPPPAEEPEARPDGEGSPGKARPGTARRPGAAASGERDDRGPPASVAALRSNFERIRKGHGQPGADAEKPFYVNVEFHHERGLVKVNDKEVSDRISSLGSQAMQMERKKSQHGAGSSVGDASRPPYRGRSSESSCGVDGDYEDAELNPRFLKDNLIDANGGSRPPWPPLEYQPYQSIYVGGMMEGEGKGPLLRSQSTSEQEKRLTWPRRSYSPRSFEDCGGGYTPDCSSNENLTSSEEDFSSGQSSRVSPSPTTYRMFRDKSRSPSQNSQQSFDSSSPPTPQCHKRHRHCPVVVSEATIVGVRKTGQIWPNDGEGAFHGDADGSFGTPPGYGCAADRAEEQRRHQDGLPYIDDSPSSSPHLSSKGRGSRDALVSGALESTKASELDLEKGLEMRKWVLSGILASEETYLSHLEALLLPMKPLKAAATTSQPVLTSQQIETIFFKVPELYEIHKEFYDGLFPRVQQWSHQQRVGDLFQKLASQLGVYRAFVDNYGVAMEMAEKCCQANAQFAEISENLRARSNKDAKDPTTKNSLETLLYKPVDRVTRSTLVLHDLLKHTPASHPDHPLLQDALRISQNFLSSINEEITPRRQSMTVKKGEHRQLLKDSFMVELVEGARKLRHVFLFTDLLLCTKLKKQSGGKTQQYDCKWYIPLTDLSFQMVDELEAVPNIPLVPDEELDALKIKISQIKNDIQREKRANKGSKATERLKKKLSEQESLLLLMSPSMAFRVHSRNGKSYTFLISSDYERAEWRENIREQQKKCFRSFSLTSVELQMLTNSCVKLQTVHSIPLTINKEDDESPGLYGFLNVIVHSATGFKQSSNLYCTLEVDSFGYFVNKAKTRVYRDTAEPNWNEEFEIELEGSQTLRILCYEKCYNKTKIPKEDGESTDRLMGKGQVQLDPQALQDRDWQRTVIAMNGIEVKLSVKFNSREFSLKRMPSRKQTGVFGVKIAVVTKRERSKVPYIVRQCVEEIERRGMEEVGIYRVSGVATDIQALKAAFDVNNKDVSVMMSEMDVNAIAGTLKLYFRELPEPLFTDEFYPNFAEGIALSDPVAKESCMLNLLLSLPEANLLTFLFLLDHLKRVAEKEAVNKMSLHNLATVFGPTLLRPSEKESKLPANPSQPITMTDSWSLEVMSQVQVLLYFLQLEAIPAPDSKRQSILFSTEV
Target sequence in this assay (Q96SW2 whole entry, looked up): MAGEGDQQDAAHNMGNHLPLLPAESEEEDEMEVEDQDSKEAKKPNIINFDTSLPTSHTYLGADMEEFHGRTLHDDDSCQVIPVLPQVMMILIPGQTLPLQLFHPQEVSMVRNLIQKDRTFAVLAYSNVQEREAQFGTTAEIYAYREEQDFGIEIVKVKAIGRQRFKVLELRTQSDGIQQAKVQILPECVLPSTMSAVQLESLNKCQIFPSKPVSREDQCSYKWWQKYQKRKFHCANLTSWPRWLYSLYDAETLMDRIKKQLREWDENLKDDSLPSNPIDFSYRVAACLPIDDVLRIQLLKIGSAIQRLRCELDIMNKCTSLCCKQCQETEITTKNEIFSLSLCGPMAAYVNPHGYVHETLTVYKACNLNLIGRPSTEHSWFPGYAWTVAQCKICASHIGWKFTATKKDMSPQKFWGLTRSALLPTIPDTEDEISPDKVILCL

Data set [2] concerns Protein cereblon/Tyrosine-protein kinase ABL1/Breakpoint cluster region protein (Mus musculus), P00519+P11274+Q8C7D2 [Y253H/E255V]. In words: Protac activity at CRBN/BCR-ABL Y253H/E255V double mutant in mouse 32D cells assessed as increase in p-BCR-ABL degradation at 1 to 1000 nM by Western blotting analysis. The format is cell-based. Particulars: dose 1-1000 nM.
The test system of data set [3] is Protein cereblon/Tyrosine-protein kinase ABL1/Breakpoint cluster region protein (Mus musculus), P00520+Q6PAJ1+Q8C7D2 [E255V]. In words: Protac activity at CRBN/BCR-ABL E255V mutant in mouse 32D cells assessed as increase in BCR-ABL degradation at 1 to 1000 nM by Western blotting analysis. In kind it is cell-based. The conditions noted are these: dose 1-1000 nM.

In data set [4] the test system is Protein cereblon/Tyrosine-protein kinase ABL1/Breakpoint cluster region protein (Mus musculus), P00519+P11274+Q8C7D2 [P223S]. In words: Protac activity at CRBN/asciminib resistance BCR-ABL P223S mutant in mouse 32D cells assessed as increase in BCR-ABL degradation at 1 to 1000 nM by Western blotting analysis. The format is cell-based. Particulars: dose 1-1000 nM.

Data set [5] deals with T1, Protein cereblon/Tyrosine-protein kinase ABL1/Breakpoint cluster region protein. The experiment in a line: Protac activity at CRBN/BCR-ABL in human K562 cells assessed as BCR-ABL turnover rate in presence of cycloheximide by Western blotting analysis. The format is cell-based.
Target sequence in this assay (P00519 whole entry, looked up): as the sequence (P00519 whole entry, looked up) above
Target sequence in this assay (P11274 whole entry, looked up): as the sequence (P11274 whole entry, looked up) above
Target sequence in this assay (Q96SW2 whole entry, looked up): as the sequence (Q96SW2 whole entry, looked up) above
Data set [6] deals with Bcr/Abl fusion protein (Homo sapiens) (UniProt P00519+P11274). The experiment in a line: Inhibition of BCR-ABL phosphorylation at Tyr245 residue in human K562 cells at 100 nM by Western blotting analysis. In kind it is cell-based. The conditions noted are these: time <= 18.0 hrs, TDE = time-dependent effect.
Bcr/Abl fusion protein (Homo sapiens), sequence (P00519 whole entry, looked up, the tested form may be a part): as the sequence (P00519 whole entry, looked up) above
Bcr/Abl fusion protein (Homo sapiens), sequence (P11274 whole entry, looked up, the tested form may be a part): as the sequence (P11274 whole entry, looked up) above
Data set [7] relates to Protein cereblon/Tyrosine-protein kinase ABL1/Breakpoint cluster region protein (Mus musculus), P00519+P11274+Q8C7D2 [V468F]. In words: Protac activity at CRBN/BCR-ABL V468F mutant in mouse 32D cells assessed as increase in BCR-ABL degradation at 1 to 1000 nM by Western blotting analysis. The format is cell-based. The conditions noted are these: dose 1-1000 nM.
For data set [8], the system named is K562. In words: Down regulation of ZFP91 expression in human K562 cells at 100 nM measured after 16 hrs by LC-MS analysis. In kind it is functional, cell-based.
Data set [9] deals with T1, Protein cereblon/Tyrosine-protein kinase ABL1/Breakpoint cluster region protein. The experiment in a line: Protac activity at CRBN/BCR-ABL in human K562 cells assessed as induction of BCR-ABL degradation at 100 nM pretreated with MG132 for 2 hrs followed by compound addition measured after 8 hrs by Western blotting analysis. The format is cell-based. Particulars: time 10.0 hrs.
Target sequence in this assay (P00519 whole entry, looked up): as the sequence (P00519 whole entry, looked up) above
Target sequence in this assay (P11274 whole entry, looked up): as the sequence (P11274 whole entry, looked up) above
Target sequence in this assay (Q96SW2 whole entry, looked up): as the sequence (Q96SW2 whole entry, looked up) above

The target is the same in data set [10]. The experiment in a line: Protac activity at CRBN/BCR-ABL in human K562 cells assessed as increase in BCR-ABL degradation at 100 nM by Western blotting analysis. In kind it is cell-based.
Target sequence in this assay (P00519 whole entry, looked up): as the sequence (P00519 whole entry, looked up) above
Target sequence in this assay (P11274 whole entry, looked up): as the sequence (P11274 whole entry, looked up) above
Target sequence in this assay (Q96SW2 whole entry, looked up): as the sequence (Q96SW2 whole entry, looked up) above
Data set [11] deals with Protein cereblon/Tyrosine-protein kinase ABL1/Breakpoint cluster region protein (Mus musculus), P00520+Q6PAJ1+Q8C7D2 [T315I]. In words: Protac activity at CRBN/BCR-ABL T315I mutant in mouse 32D cells assessed as increase in BCR-ABL degradation at 1 to 1000 nM by Western blotting analysis. Particulars: dose 1-1000 nM. In kind it is cell-based.
The test system of data set [12] is Protein cereblon/Tyrosine-protein kinase ABL1/Breakpoint cluster region protein (Mus musculus), P00519+P11274+Q8C7D2 [F359V]. In words: Protac activity at CRBN/asciminib resistance BCR-ABL F359V mutant in mouse 32D cells assessed as increase in BCR-ABL degradation at 1 to 1000 nM by Western blotting analysis. The format is cell-based. Particulars: dose 1-1000 nM.

Data set [13] has as its system U-937. In words: Antiproliferative activity against human U-937 cells assessed as inhibition of cell growth incubated for 2 days by CCK8 assay. The format is functional, cell-based. The conditions noted are these: time 2.0 day. In general terms: Formazan colour is commonly taken as a measure of viable cells.
In data set [14] the target is T2, Signal transducer and activator of transcription 5A (Homo sapiens) (UniProt P42229).
T2 sequence (whole entry): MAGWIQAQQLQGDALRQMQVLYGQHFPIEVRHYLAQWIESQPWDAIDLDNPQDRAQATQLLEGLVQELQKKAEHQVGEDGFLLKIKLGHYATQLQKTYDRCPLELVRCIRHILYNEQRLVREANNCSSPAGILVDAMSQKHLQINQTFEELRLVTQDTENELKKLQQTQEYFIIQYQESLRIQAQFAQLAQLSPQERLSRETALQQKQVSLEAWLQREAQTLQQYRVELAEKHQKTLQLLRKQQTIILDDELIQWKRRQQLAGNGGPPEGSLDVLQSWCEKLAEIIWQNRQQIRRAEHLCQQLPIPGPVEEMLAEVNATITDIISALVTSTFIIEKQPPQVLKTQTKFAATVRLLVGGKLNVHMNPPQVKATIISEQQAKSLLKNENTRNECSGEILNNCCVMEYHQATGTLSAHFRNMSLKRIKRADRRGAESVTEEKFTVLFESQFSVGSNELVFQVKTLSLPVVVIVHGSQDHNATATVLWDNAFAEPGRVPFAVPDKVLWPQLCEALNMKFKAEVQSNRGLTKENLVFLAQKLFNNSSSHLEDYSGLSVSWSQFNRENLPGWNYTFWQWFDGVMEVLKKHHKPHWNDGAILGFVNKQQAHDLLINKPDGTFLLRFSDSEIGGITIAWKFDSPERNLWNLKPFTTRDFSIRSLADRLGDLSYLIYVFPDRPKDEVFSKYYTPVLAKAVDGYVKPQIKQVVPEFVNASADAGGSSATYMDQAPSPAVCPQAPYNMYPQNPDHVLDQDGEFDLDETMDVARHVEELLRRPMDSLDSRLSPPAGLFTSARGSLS
The experiment in a line: Inhibition of STAT5 phosphorylation at Tyr694 residue in human K562 cells at 0.3 to 100 nM incubated for 16 hrs by Western blotting analysis. In kind it is cell-based. Particulars: dose 0.3-100 nM.

Data set [15] has as its target T1, Protein cereblon/Tyrosine-protein kinase ABL1/Breakpoint cluster region protein. In words: Protac activity at CRBN/BCR-ABL in human K562 cells assessed as c-ABL turnover rate in presence of cycloheximide by Western blotting analysis. The format is cell-based.
Target sequence in this assay (P00519 whole entry, looked up): as the sequence (P00519 whole entry, looked up) above
Target sequence in this assay (P11274 whole entry, looked up): as the sequence (P11274 whole entry, looked up) above
Target sequence in this assay (Q96SW2 whole entry, looked up): as the sequence (Q96SW2 whole entry, looked up) above
The subject of data set [16] is K562. In words: Down regulation of […] expression in human K562 cells at 100 nM measured after 16 hrs by LC-MS analysis. The format is functional, cell-based.
Data set [17] concerns the target T1, Protein cereblon/Tyrosine-protein kinase ABL1/Breakpoint cluster region protein. The experiment in a line: Protac activity at CRBN/BCR-ABL in human K562 cells assessed as induction of c-ABL degradation at 100 nM pretreated with lenalidomide for 2 hrs followed by compound addition measured after 8 hrs by Western blotting analysis. In kind it is cell-based. Particulars: time 10.0 hrs.
Target sequence in this assay (P00519 whole entry, looked up): as the sequence (P00519 whole entry, looked up) above
Target sequence in this assay (P11274 whole entry, looked up): as the sequence (P11274 whole entry, looked up) above
Target sequence in this assay (Q96SW2 whole entry, looked up): as the sequence (Q96SW2 whole entry, looked up) above

Data set [18] has the same target. In words: Protac activity at CRBN/BCR-ABL in human K562 cells assessed as induction of BCR-ABL degradation at 100 nM pretreated with lenalidomide for 2 hrs followed by compound addition measured after 8 hrs by Western blotting analysis. The format is cell-based. The conditions noted are these: time 10.0 hrs.
Data set [19] has the same target. The experiment in a line: Protac activity at CRBN/BCR-ABL in human K562 cells assessed as increase in BCR-ABL degradation incubated for 16 hrs by Western blotting analysis. The format is cell-based.
Target sequence in this assay (P00519 whole entry): as the sequence (P00519 whole entry, looked up) above
Target sequence in this assay (P11274 whole entry): as the sequence (P11274 whole entry, looked up) above
Target sequence in this assay (Q96SW2 whole entry): as the sequence (Q96SW2 whole entry, looked up) above
Data set [20] is described as follows: Apparent permeability in human Caco-2 cells incubated for 120 mins by LC-MS/MS analysis. The format is ADME, cell-based. The conditions noted are these: caco-2, 2 h. (In general: Caco-2 monolayers are a common model of the intestinal barrier.)

Activity calls are given as the source filed them. No cut-off for these calls is given here.

Usually DC50 stands for the concentration giving 50% degradation.

`O=C1CCC(N2Cc3c(SCCCCCCN4CCN(C5CCN(c6ncc(C(=O)Nc7ccc(OC(F)(F)Cl)cc7)cc6-c6ccn[nH]6)CC5)CC4)cccc3C2=O)C(=O)N1` (stereo not given): the result in data set [1], in data set [7], in data set [9], in data set [13], in data set [17] and in [18] was inactive. Further, the outcome in data set [2], in data set [3], in data set [4], in [5], in data set [8] and in [11] was Active. Moreover, the outcome in data set [12], in data set [15] and in data set [16] was Active. Further, in data set [6], the inhibition result is “Tde”. In addition, the Activity in data set [10] came to 91.2%. Moreover, the inhibition result in data set [14] is “Active”. Besides, in data set [19], the DC50 was 2.7 nM. Besides, the Papp result in data set [20] is “Impermeable”.

These data come from ChEMBL document CHEMBL5247625, “Discovery and characterization of novel potent BCR-ABL degraders by conjugating allosteric inhibitor” (Eur J Med Chem, 2022).
